Patent publication US5607926A, “Cephalosporin antibiotics” (Microcide Pharmaceuticals, Inc., priority 1995, dated 1997)
Values after ≈ are worked out from the molar mass of the structure shown. Counter-ions that a name gives are not always drawn. Like-named read-outs stand apart in the source and are kept apart here.

Key:
Format in all cases: cell-based
E. faecalis ATCC 29212 = assay: In vitro antibacterial evaluation, MIC by agar dilution, E. faecalis ATCC 29212; details: Enterococcus faecalis, ATCC29212; E. faecalis ATCC 29212; read-out: MIC
Procedure, shortened: (§1)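 Log-phase cultures (4-6 h broth growth) are adjusted to 0.5 McFarland and diluted to give roughly 10^4 cfu per 1 μL spot. Spots go onto Mueller-Hinton agar containing test compound in two-fold dilutions (128 to ≤0.25 μg/mL), then plates incubate 16-20 hours at 35°-36° C before MIC reading.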

S. aureus ATCC 25923 = assay: In vitro antibacterial evaluation, MIC by agar dilution, S. aureus ATCC 25923; details: Staphylococcus aureus, ATCC25923
Method: The compounds of the invention were evaluated against several β-lactamresistant bacteria strains by determining the minimum inhibitory concentration (MIC, μg/ml) of each compound with respect to each strain. The MIC, the lowest concentration of antibiotic which inhibits growth of the test organism, was determined by the agar dilution method.
To determine the MIC for bacterial isolates, the test compound was incorporated in a series of two-fold dilutions into liquified Mueller-Hinton agar. Upon solidification, a number of different bacterial strains were spot inoculated with a replicating device onto the agar surface. […] The procedures used in these studies have been standardized by the National Committee for Clinical Laboratory Standards (NCCLS), as per the NCCLS publication entitled METHODS FOR DILUTION ANTIMICROBIAL SUSCEPTIBILITY TESTS (1991), which is incorporated herein by reference.
Aliquots of antimicrobial agents were prepared in phosphate buffered saline (PBS) at pH 7.2. Tween 20 or DMSO was used as a solubilizing vehicle as needed. Standard methods of vortexing, sonicating and gentle heat were used to facilitate solubilizing the test agent. Typically, the concentration of the stock solution was 10× that of the highest drug concentration tested. A 1.28 mg/mL stock solution was used with a subsequent highest working concentration of 128 μg/mL. Serial two-fold dilutions were done through ≤0.25 μg/mL. Each drug level was tested in duplicate. Two-fold drug dilutions were done in sterile 50 mL tubes with a final drug volume of 5 mL. Upon the addition of 45 mL of molten agar, a 10-fold dilution resulted. Two, 25 mL. plates were then poured into 15×150 mm square Petri plates with grids and allowed to harden.
A control plate with a reference drug, either cefotaxime, vancomycin or imipenem, was used as the positive growth control. Stock concentrations of reference antibiotics were prepared and frozen at -80° C. Upon preparation, the control plates were sealed and stored in the refrigerator for up to 1 week prior to use; however, imipenem control plates had to be prepared just prior to use. All test plates were used within 24 hours of preparation.
Satisfactory results were obtained where the inoculum contained about 10^4 colony forming units (cfu) ±0.5 logs. Starting with pure cultures of the test isolates on agar plates, a few isolated colonies were transferred to a tube of nutrient broth and allowed to grow 4-6 hours at 35°-36° C. to reach log-phase growth. Dropwise addition of the broth culture to PBS was done to match a 0.5 McFarland turbidity standard equal to 10^8 cfu/mL. This was further diluted ten-fold in PBS to reach a working inoculum concentration of 10^7 cfu/mL. When 1 μL of the working inoculum was applied to the agar surface a concentration of about 10^4 cfu per spot was obtained.
Disposable sterile 1 μL loops were used to inoculate test plates, with each isolate in a designated grid on the agar plate. An alternate method of inoculation involved the use of a replica plater, a device with 48 steel pins allowing the simultaneous inoculation of multiple isolates. After the spots had dried, the plates were incubated at 35°-36° C. for 16-20 hours. Endpoints were assessed as the minimum inhibitory concentration (MIC) of antimicrobial agent.

S. haemolyticus (Meth^R) = assay: In vitro antibacterial evaluation, MIC by agar dilution, S. haemolyticus; details: Staphylococcus haemolyticus, read-out: MIC
Procedure, shortened: as §1

E. coli ATCC 25922 = assay: In vitro antibacterial evaluation, MIC by agar dilution, E. coli ATCC 25922; details: Escherichia coli, ATCC25922, read-out: MIC
Procedure, shortened: as §1

P. aeruginosa ATCC 27853 = assay: In vitro antibacterial evaluation, MIC by agar dilution, P. aeruginosa ATCC 27853; details: Pseudomonas aeruginosa, ATCC27853, read-out: MIC
Procedure, shortened: as §1

[1] = test system: S. aureus 76 (Meth^R)(lac^+); assay: In vitro antibacterial evaluation, MIC by agar dilution, S. aureus 76; details: Staphylococcus aureus, read-out: MIC
Procedure, shortened: as §1

[2] = test system: S. aureus Col8A (Meth^S)(lac^-); assay: In vitro antibacterial evaluation, MIC by agar dilution, S. aureus Col8A; details: Staphylococcus aureus
Procedure, shortened: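 Log-phase isolates were spot-inoculated at about 10^4 cfu onto Mueller-Hinton agar carrying duplicate two-fold compound levels, 128 μg/mL to ≤0.25 μg/mL, following NCCLS (1991). Plates were read after 16-20 h at 35°-36° C. The lowest growth-inhibiting concentration gave the MIC (μg/ml).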

S. aureus ATCC 29213 = assay: In vitro antibacterial evaluation, MIC by agar dilution, S. aureus ATCC 29213; details: Staphylococcus aureus, ATCC29213
Procedure, shortened: as §1

[3] = test system: S. epidermidis ATCC 31432; assay: In vitro antibacterial evaluation, MIC by agar dilution, S. epidermidis ATCC 31432; details: Staphylococcus epidermidis, ATCC31432
Procedure, shortened: as §1

E. faecium ATCC 35667 = assay: In vitro antibacterial evaluation, MIC by agar dilution, E. faecium ATCC 35667; details: Enterococcus faecium, ATCC35667, read-out: MIC
Procedure, shortened: as §1

[4] = S. aureus ATCC 29213, read-out: MIC

SMILES	MIC (E. faecalis ATCC 29212) [mg/L]	MIC (S. aureus ATCC 25923) [mg/L]	MIC (S. haemolyticus (Meth^R)) [mg/L]	MIC (E. coli ATCC 25922) [mg/L]	MIC (P. aeruginosa ATCC 27853) [mg/L]	MIC [1] [mg/L]	MIC [2] [mg/L]	MIC (S. aureus ATCC 29213; [4]) [mg/L]	MIC [3] [mg/L]	MIC (E. faecium ATCC 35667) [mg/L]	MIC (S. aureus ATCC 25923; S. aureus ATCC 25923, read-out: MIC) [mg/L]	MIC ([3]; S. epidermidis ATCC 31432, read-out: MIC) [mg/L]	MIC (S. aureus ATCC 29213) [mg/L]
N#Cc1ccc(SC2=C(C(=O)O)N3C(=O)[C@@H](NC(=O)Cc4ccccc4)[C@H]3SC2)c(C#N)c1 [Cmpd 51, (7R)-7-[(Phenylacetyl)amino]-3-(2,4-dicyanophenylthio)-3-cephem-4-carboxylic acid]	4 (≈ 8.39 µM)	< 0.25	32 (≈ 67.2 µM)	> 32	> 32	8 (≈ 16.8 µM)	< 0.25	0.5 (≈ 1.05 µM)	< 0.25	4 (≈ 8.39 µM)			
N#CCC(=O)N[C@@H]1C(=O)N2C(C(=O)O)=C(Sc3ccccc3C#N)CS[C@H]12 [Cmpd 52, (7R)-7-[(Cyanoacetyl)amino]-3-(2-cyanophenylthio)-3-cephem-4-carboxylic acid]	4 (≈ 9.99 µM)		16 (≈ 40 µM)	> 32	> 32	16 (≈ 40 µM)	0.5 (≈ 1.25 µM)	0.5 (≈ 1.25 µM)		2 (≈ 4.99 µM)	< 0.25	< 0.25	
N=C(N)SCc1ccccc1SC1=C(C(=O)O)N2C(=O)[C@@H](NC(=O)Cc3ccccc3)[C@H]2SC1 [Cmpd 64, (7R)-7-[(Phenylacetyl)amino]-3-(2-isothiouroniummethylphenylthio)-3-cephem-4-carboxylate, inner salt]	1	< 0.25	8	> 32	> 32	4	< 0.25		< 0.25	0.5			< 0.25
O=C(Cc1ccccc1)N[C@@H]1C(=O)N2C(C(=O)O)=C(Sc3ccc(CSc4ncn[nH]4)cc3)CS[C@H]12 [Cmpd 65, (7R)-7-[(Phenylacetyl)amino]-3-(4-(1,2,4-triazol-5-ylthiomethyl)phenylthio)-3-cephem-4-carboxylic acid]	1 (≈ 1.85 µM)	< 0.25	32 (≈ 59.3 µM)	> 32	> 32	32 (≈ 59.3 µM)	< 0.25		< 0.25	2 (≈ 3.71 µM)			< 0.25
O=C(Cc1ccccc1)N[C@@H]1C(=O)N2C(C(=O)O)=C(Sc3ccccc3CSc3ncn[nH]3)CS[C@H]12 [Cmpd 67, (7R)-7-[(Phenylacetyl)amino]-3-(2-(1,2,4-triazol-5-ylthiomethyl)phenylthio)-3-cephem-4-carboxylic acid]	2 (≈ 3.71 µM)	< 0.25	16 (≈ 29.6 µM)	> 32	> 32	16 (≈ 29.6 µM)	< 0.25		< 0.25	2 (≈ 3.71 µM)			< 0.25
O=C1CNC(SCc2ccccc2SC2=C(C(=O)O)N3C(=O)[C@@H](NC(=O)Cc4ccccc4)[C@H]3SC2)=N1 [Cmpd 68]	4 (≈ 7.21 µM)	< 0.25	32 (≈ 57.7 µM)	> 32	> 32	16 (≈ 28.8 µM)	< 0.25		< 0.25	4 (≈ 7.21 µM)			< 0.25
CN(C)C(SCc1ccccc1SC1=C(C(=O)[O-])N2C(=O)[C@@H](NC(=O)Cc3ccccc3)[C@H]2SC1)=[N+](C)C [Cmpd 69, (7R)-7-[(Phenylacetyl)amino]-3-(2-tetramethylisothiouroniummethylphenylthio)-3-cephem-4-carboxylate, inner salt]	2	< 0.25	32	> 32	> 32	16	< 0.25		< 0.25	2			< 0.25
O=C(Cc1ccccc1)N[C@@H]1C(=O)N2C(C(=O)O)=C(Sc3ccccc3CSc3ccncc3)CS[C@H]12 [Cmpd 70]	0.5 (≈ 0.91 µM)	< 0.25	32 (≈ 58.2 µM)	> 32	> 32	16 (≈ 29.1 µM)	< 0.25		< 0.25	2 (≈ 3.64 µM)			< 0.25
Cn1nnnc1SCc1ccccc1SC1=C(C(=O)O)N2C(=O)[C@@H](NC(=O)Cc3ccccc3)[C@H]2SC1 [Cmpd 71]	1 (≈ 1.8 µM)	< 0.25	> 32	> 32	> 32	> 32	< 0.25		< 0.25	2 (≈ 3.61 µM)			< 0.25
O=C(Cc1ccccc1)N[C@@H]1C(=O)N2C(C(=O)O)=C(Sc3ccccc3CSC3=NCCN3)CS[C@H]12 [Cmpd 72]	1 (≈ 1.85 µM)	< 0.25	32 (≈ 59.2 µM)	> 32	> 32	16 (≈ 29.6 µM)	< 0.25		< 0.25	2 (≈ 3.7 µM)			< 0.25
C[n+]1ccc(SCc2ccccc2SC2=C(C(=O)[O-])N3C(=O)[C@@H](NC(=O)Cc4ccccc4)[C@H]3SC2)cc1 [Cmpd 73, (7R)-7-[(Phenylacetyl)amino]-3-(2-(N-methylpyridin-4-ium)thiomethyl)phenylthio)-3-cephem-4-carboxylate, inner salt]	0.5	< 0.25	32	> 32	> 32	16	< 0.25		< 0.25	1			< 0.25
O=C(Cc1ccccc1)N[C@@H]1C(=O)N2C(C(=O)O)=C(Sc3cnnn3-c3ccccc3)CS[C@H]12 [Cmpd 91, (7R)-7-[(Phenylacetyl)amino]-3-(1-N-phenyl-1,2,3-triazol-5-ylthio)-3-cephem-4-carboxylic acid]	1 (≈ 2.03 µM)	< 0.25	> 32	> 32	> 32	16 (≈ 32.4 µM)	< 0.25		< 0.25	2 (≈ 4.05 µM)			
O=C(Cc1ccccc1)N[C@@H]1C(=O)N2C(C(=O)O)=C(Sc3nnnn3-c3ccccc3)CS[C@H]12 [Cmpd 94, (7R)-7-[(Phenylacetyl)amino]-3-(1-N-phenyltetrazol-5-ylthio)-3-cephem-4-carboxylic acid]	1 (≈ 2.02 µM)	< 0.25	> 32	> 32	> 32	16 (≈ 32.4 µM)	< 0.25		< 0.25	2 (≈ 4.04 µM)			
O=C(Cc1ccccc1)N[C@@H]1C(=O)N2C(C(=O)O)=C(Sc3ccccc3-c3cnco3)CS[C@H]12 [Cmpd 95, (7R)-7-[(Phenylacetyl)amino]-3-(2-oxazol-5-ylphenylthio)-3-cephem-4-carboxylic acid]	4 (≈ 8.1 µM)	< 0.25	16 (≈ 32.4 µM)	> 32	> 32	8 (≈ 16.2 µM)	< 0.25		< 0.25	4 (≈ 8.1 µM)			
